Results from the NIST ThermoML archive (doi:10.1021/je900124n).
Where “and” joins values, the source holds several entries; their conditions need not be identical. Identical values can stand only once.

Conditions: Fluid (supercritical or subcritical phases), Buoyancy - hydrostatic balance with magnetic suspension - two sinkers

CCC [propane]
Conditions | mass density
315 K, 774.95 kPa | 14.7169 kg/m3 and 14.7168 kg/m3
315 K, 774.96 kPa | 14.7169 kg/m3 and 14.7168 kg/m3
315 K, 1306.4 kPa | 27.9201 kg/m3 and 27.9221 kg/m3
315 K, 1306.5 kPa | 27.9244 kg/m3
315 K, 1306.6 kPa | 27.927 kg/m3 and 27.926 kg/m3
320 K, 270.24 kPa | 4.64 kg/m3 and 4.6399 kg/m3 and 4.6398 kg/m3
320 K, 476.69 kPa | 8.4338 kg/m3 and 8.4339 kg/m3
320 K, 789.41 kPa | 14.6898 kg/m3
320 K, 789.42 kPa | 14.69 kg/m3
320 K, 789.43 kPa | 14.6907 kg/m3 and 14.6901 kg/m3
320 K, 1333.7 kPa | 27.726 kg/m3
320 K, 1333.9 kPa | 27.7763 kg/m3
320 K, 1334.3 kPa | 27.7883 kg/m3
320 K, 1334.6 kPa | 27.742 kg/m3
320 K, 1335 kPa | 27.8035 kg/m3
320 K, 2017.4 kPa | 457.1 kg/m3
320 K, 2018.5 kPa | 457.104 kg/m3
320 K, 2018.7 kPa | 457.105 kg/m3
320 K, 2018.8 kPa | 457.104 kg/m3
320 K, 2019.1 kPa | 457.105 kg/m3
320 K, 2019.3 kPa | 457.11 kg/m3
320 K, 2019.4 kPa | 457.108 kg/m3
320 K, 2019.5 kPa | 457.11 kg/m3
320 K, 2019.8 kPa | 457.109 kg/m3 and 457.107 kg/m3 and 457.108 kg/m3
320 K, 2019.9 kPa | 457.109 kg/m3
320 K, 4080.8 kPa | 466.418 kg/m3
320 K, 4080.9 kPa | 466.42 kg/m3
320 K, 4081 kPa | 466.419 kg/m3
320 K, 4081.3 kPa | 466.42 kg/m3
320 K, 4081.6 kPa | 466.42 kg/m3
320 K, 8257.8 kPa | 481.065 kg/m3
320 K, 8258.1 kPa | 481.068 kg/m3
320 K, 8258.4 kPa | 481.067 kg/m3 and 481.068 kg/m3
320 K, 10347 kPa | 487.109 kg/m3 and 487.106 kg/m3 and 487.107 kg/m3
320 K, 10348 kPa | 487.113 kg/m3 and 487.107 kg/m3
320 K, 10349 kPa | 487.112 kg/m3
320 K, 12003 kPa | 491.44 kg/m3
320 K, 12004 kPa | 491.44 kg/m3 and 491.441 kg/m3
320 K, 16094 kPa | 500.965 kg/m3
320 K, 16095 kPa | 500.967 kg/m3
320 K, 16096 kPa | 500.967 kg/m3
320 K, 20063 kPa | 508.971 kg/m3 and 508.967 kg/m3 and 508.969 kg/m3
320 K, 20064 kPa | 508.969 kg/m3 and 508.971 kg/m3
320 K, 24069 kPa | 516.143 kg/m3
320 K, 24072 kPa | 516.146 kg/m3 and 516.148 kg/m3 and 516.147 kg/m3
320 K, 29981 kPa | 525.489 kg/m3
320 K, 29983 kPa | 525.494 kg/m3
320 K, 29985 kPa | 525.495 kg/m3
320 K, 29986 kPa | 525.497 kg/m3
320 K, 35299 kPa | 532.943 kg/m3
320 K, 35300 kPa | 532.945 kg/m3 and 532.943 kg/m3
320 K, 35301 kPa | 532.945 kg/m3
325 K, 803.73 kPa | 14.6629 kg/m3 and 14.6627 kg/m3 and 14.6626 kg/m3
325 K, 803.74 kPa | 14.6631 kg/m3 and 14.6629 kg/m3
325 K, 1340.6 kPa | 27.0793 kg/m3
325 K, 1340.9 kPa | 27.1015 kg/m3
325 K, 1341.2 kPa | 27.0724 kg/m3
325 K, 1341.8 kPa | 27.0948 kg/m3
330 K, 278.72 kPa | 4.6293 kg/m3 [middle of 4 runs]
330 K, 492.57 kPa | 8.4128 kg/m3 and 8.4127 kg/m3
330 K, 492.58 kPa | 8.4128 kg/m3 and 8.4127 kg/m3
330 K, 817.85 kPa | 14.6343 kg/m3
330 K, 817.86 kPa | 14.6347 kg/m3 and 14.6346 kg/m3 and 14.6343 kg/m3
330 K, 817.87 kPa | 14.6348 kg/m3
330 K, 1346.8 kPa | 26.4281 kg/m3
330 K, 1347 kPa | 26.4322 kg/m3
330 K, 1347.2 kPa | 26.4396 kg/m3
330 K, 1347.3 kPa | 26.4407 kg/m3 and 26.4409 kg/m3
330 K, 1714.5 kPa | 36.5728 kg/m3 [middle of 5 runs]
335 K, 1765.2 kPa | 36.7322 kg/m3 and 36.7333 kg/m3 and 36.7309 kg/m3
335 K, 1765.3 kPa | 36.7327 kg/m3 and 36.733 kg/m3
340 K, 287.12 kPa | 4.6188 kg/m3 and 4.6185 kg/m3
340 K, 287.13 kPa | 4.6186 kg/m3
340 K, 508.31 kPa | 8.392 kg/m3 and 8.3919 kg/m3
340 K, 508.32 kPa | 8.3921 kg/m3
340 K, 508.33 kPa | 8.3921 kg/m3
340 K, 846.05 kPa | 14.5839 kg/m3
340 K, 846.06 kPa | 14.584 kg/m3 and 14.5839 kg/m3
340 K, 846.07 kPa | 14.5839 kg/m3
340 K, 1352.2 kPa | 25.1571 kg/m3
340 K, 1352.4 kPa | 25.1613 kg/m3 and 25.1637 kg/m3
340 K, 1352.5 kPa | 25.161 kg/m3
340 K, 1352.7 kPa | 25.168 kg/m3
340 K, 1816.9 kPa | 36.9173 kg/m3
340 K, 1817.1 kPa | 36.9239 kg/m3 and 36.9243 kg/m3
340 K, 2355.2 kPa | 55.4656 kg/m3
340 K, 2355.4 kPa | 55.4825 kg/m3 and 55.4906 kg/m3
340 K, 2355.5 kPa | 55.5083 kg/m3
340 K, 2355.8 kPa | 55.4793 kg/m3
340 K, 3925.4 kPa | 425.071 kg/m3 and 425.069 kg/m3
340 K, 3925.5 kPa | 425.072 kg/m3
340 K, 3925.6 kPa | 425.073 kg/m3 and 425.071 kg/m3 and 425.072 kg/m3
340 K, 3925.7 kPa | 425.072 kg/m3 and 425.071 kg/m3
340 K, 3925.8 kPa | 425.071 kg/m3 and 425.072 kg/m3
340 K, 8053.4 kPa | 448.649 kg/m3
340 K, 8053.5 kPa | 448.65 kg/m3
340 K, 8053.6 kPa | 448.651 kg/m3
340 K, 8053.8 kPa | 448.649 kg/m3
340 K, 8054.1 kPa | 448.649 kg/m3
340 K, 12040 kPa | 464.072 kg/m3 and 464.071 kg/m3
340 K, 12041 kPa | 464.071 kg/m3
340 K, 16069 kPa | 476.246 kg/m3 and 476.247 kg/m3 and 476.248 kg/m3
340 K, 16070 kPa | 476.248 kg/m3
340 K, 19781 kPa | 485.636 kg/m3
340 K, 19783 kPa | 485.642 kg/m3 and 485.644 kg/m3
340 K, 19784 kPa | 485.647 kg/m3 [middle of 4 runs]
340 K, 19785 kPa | 485.649 kg/m3
340 K, 19943 kPa | 485.999 kg/m3
340 K, 19946 kPa | 486.007 kg/m3 and 486.009 kg/m3 and 486.006 kg/m3
340 K, 19947 kPa | 486.007 kg/m3
340 K, 23981 kPa | 494.781 kg/m3 and 494.78 kg/m3
340 K, 23982 kPa | 494.781 kg/m3
340 K, 29812 kPa | 505.708 kg/m3
340 K, 29815 kPa | 505.714 kg/m3
340 K, 29816 kPa | 505.715 kg/m3 and 505.712 kg/m3
340 K, 29817 kPa | 505.713 kg/m3
